Experimental data taken from patent US20240117005A1, “NOVEL BICYCLIC PEPTIDES” (THE COUNCIL OF THE QUEENSLAND INSTITUTE OF MEDICAL RESEARCH, priority 2021, published 2024).
Entries after “also recorded” stand apart in the source; their conditions may differ. No end group written: not given here. *: point of attachment. Myristyl = CCCCCCCCCCCCCC*

Assays:
[1] = target: T1, complex of PDL1-PTM1 and IMPα1 (Mus musculus, UniProt P52293); experiment: DUOLINK proximity assay PDL1-PTM1 and IMPα1, CT26; format: cell-based
T1 construct: endogenous in cells; host or cells: CT26
Method: (A) CT26, 4T1 or MDA-MB-231 Cells were treated with inhibitors for 72 hours. Following inhibition, media was removed and replaced with WST-1 cell proliferation reagent. Absorbance was recorded at 450 nm after 1 hour. Data represent a single independent experiment performed in triplicate. Results are graphed as mean +/− standard error (SE). B) MDA-MB-231 or CT26 cancer cells were treated with vehicle control, DL-2-Batch 1 (original stock), DL-2-Batch 2 (current stock), DL-2-TBAB or linear PDL1. Cells were permeabilised and were probed with the DUOLINK ligation assay. Cover slips were mounted on glass microscope slides with ProLong nucblue glass Antifade reagent (Life Technologies). PDL1Ac and IMPα1 DUOLINK Digital images were analysed using ImageJ software (ImageJ, NIH, Bethesda, MD, USA) and graphs represent the mean DOT Fluorescent Intensity in the nucleus or the cytoplasm compartments with significant differences calculated as per one-way ANOVA comparison. […] PDL1-unmodified and IMPα1 DUOLINK digital images were analysed using ImageJ software (ImageJ, NIH, Bethesda, MD, USA) and graphs represent the mean DOT fluorescent intensity in the nucleus or the cytoplasm compartments with significant differences calculated as per one-way ANOVA comparison. […]

[2] = target: T2, complex of PDL1 (unmodified) and IMPα1 (Mus musculus, UniProt P52293); experiment: DUOLINK proximity assay PDL1 (unmodified) and IMPα1, CT26; format: cell-based
T2 construct: endogenous in cells; host or cells: CT26
Method: To characterize unmodified PDL1 and IMPα1, MDA-MB-231 cells or CT26 cells were treated with vehicle control, DL-2-batch 1, DL-2-batch 2 or linear PDL1. Cells were permeabilised and were probed with the DUOLINK ligation assay. Cover slips were mounted on glass microscope slides with ProLong nucblue glass Antifade reagent (Life Technologies). PDL1 (unmodified) and IMPα1 DUOLINK Digital images were analysed using ImageJ software (ImageJ, NIH, Bethesda, MD, USA) and graphs represent the mean DOT Fluorescent Intensity in the nucleus or the cytoplasm compartments with significant differences calculated as per One-Way ANOVA comparison.
(A) CT26, 4T1 or MDA-MB-231 Cells were treated with inhibitors for 72 hours. […] Absorbance was recorded at 450 nm after 1 hour. […] PDL1Ac and IMPα1 DUOLINK Digital images were analysed using ImageJ software (ImageJ, NIH, Bethesda, MD, USA) and graphs represent the mean DOT Fluorescent Intensity in the nucleus or the cytoplasm compartments with significant differences calculated as per one-way ANOVA comparison. […] PDL1-unmodified and IMPα1 DUOLINK digital images were analysed using ImageJ software (ImageJ, NIH, Bethesda, MD, USA) and graphs represent the mean DOT fluorescent intensity in the nucleus or the cytoplasm compartments with significant differences calculated as per one-way ANOVA comparison. […]

Row | Compound | complex of PDL1-PTM1 and IMPα1 (DUOLINK) [1] | complex of PDL1 (unmodified) and IMPα1 (DUOLINK) [2]
1 | CCCCCCCCCCCCCC(=O)NC(C)C(=O)NC1CSCc2cc3cc(c2)CSC[C@H](NC(=O)[C@H](Cc2ccccc2)NC(=O)[C@H](C(C)CC)NC(=O)[C@H](Cc2ccccc2)NC(=O)[C@H]([C@@H](C)O)NC(=O)C(CC(C)C)NC1=O)C(=O)N[C@@H](CCCNC(C)=N)C(=O)N[C@@H](CC(C)C)C(=O)N[C@@H](CCCNC(=N)N)C(=O)N[C@@H](CCCCN)C(=O)NCC(=O)N[C@@H](CCCNC(=N)N)C(=O)NC(C(=O)N[C@@H](CCSC)C(=O)NC(CCSC)C(=O)N[C@@H](CC(=O)O)C(=O)NC(C(=O)N[C@@H](CCCCN)C(=O)NC(CCCCN)C(=O)O)C(C)C)CSC3 (mixture of isomers) [DL-2] | able to successfully abrogate the complex | able to abrogate the complex
2 | LTFIFRLRKGRMMDVKK (Myristyl-LTFIFRLRKGRMMDVKK) [PDL1-L1, Myristyl- linear peptide, prototype] | no change | unable to significantly impact the complex; also recorded: no change
